In patent publication US20250230193A1, “CYCLIC COMPOUND HAVING SELECTIVE KRAS INHIBITORY EFFECT ON HRAS AND NRAS” (CHUGAI SEIYAKU KABUSHIKI KAISHA, priority 2022, published 2025):
*1 amine or outer side, *2 acyl side, *3 side chain or, on linkers, in order; H or OH if unused. Where a SMILES comes first, the peptide text is derived from it. Bridges are numbered along the chain shown (N, C = ends). [ ]: non-standard residue; d: D form. The star is where a group is joined. hPhe(3-Cl-4-CF3) = N[C@@H](CCc1ccc(C(F)(F)F)c(Cl)c1)C(=O)O; NEtPhe(4-CF3) = CCN[C@@H](Cc1ccc(C(F)(F)F)cc1)C(=O)O; NEtPhe(4-Me) = CCN[C@@H](Cc1ccc(C)cc1)C(=O)O; NMeAbu(4,4,4-F3) = CN[C@@H](CC(F)(F)F)C(=O)O; NMePhe(4-Me) = CN[C@@H](Cc1ccc(C)cc1)C(=O)O; X30 = CCN([C@H](C(=O)[*:2])C1CCCC1)[*:1]; NMeGly(cPent) = CN[C@H](C(=O)O)C1CCCC1; NMeF = CN[C@@H](Cc1ccccc1)C(=O)O; NMeD = CN[C@@H](CC(=O)O)C(=O)O; NMeL = CN[C@@H](CC(C)C)C(=O)O; NMeS = CN[C@@H](CO)C(=O)O; Morpholide = C1CN(*)CCO1; NMeA = CN[C@@H](C)C(=O)O; Ac5c = NC1(C(=O)O)CCCC1; NBuGly = CCCCNCC(=O)O; NEtG = CCNCC(=O)O; Sar = CNCC(=O)O

Columns and labels:
[1] = target: GDP-bound NRAS wild-type protein (Homo sapiens, UniProt P01111); experiment: Binding to NRAS by surface plasmon resonance (SPR), Single Cycle Kinetics; details: KD ratio NRAS/KRAS, SPR
Chain of GDP-bound NRAS wild-type protein (P01111 whole entry): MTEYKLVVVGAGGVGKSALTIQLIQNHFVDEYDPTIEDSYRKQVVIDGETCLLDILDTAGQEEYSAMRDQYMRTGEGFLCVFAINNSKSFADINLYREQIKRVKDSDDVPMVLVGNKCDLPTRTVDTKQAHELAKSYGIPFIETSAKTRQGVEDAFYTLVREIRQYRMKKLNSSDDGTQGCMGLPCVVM

[2] = target: GDP-bound HRAS wild-type protein (Homo sapiens, UniProt P01112); experiment: Binding to HRAS by surface plasmon resonance (SPR), Single Cycle Kinetics; details: KD ratio HRAS/KRAS, SPR
Chain of GDP-bound HRAS wild-type protein (P01112 whole entry): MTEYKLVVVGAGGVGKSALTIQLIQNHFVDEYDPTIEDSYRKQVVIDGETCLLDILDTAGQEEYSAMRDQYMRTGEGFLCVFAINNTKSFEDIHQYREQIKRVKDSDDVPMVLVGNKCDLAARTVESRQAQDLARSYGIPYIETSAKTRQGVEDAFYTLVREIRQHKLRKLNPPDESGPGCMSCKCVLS

Row | Compound | NRAS/KRAS (ratio of KD for GDP-bound NRAS wild-type to KD for KRAS) [1] | HRAS/KRAS (ratio of KD for GDP-bound HRAS wild-type to KD for KRAS) [2]
1 | CCCCN1CC(=O)N(C)[C@@H](Cc2ccc(C)cc2)C(=O)N(C)CC(=O)N[C@@H](CCc2ccc(C(F)(F)F)c(Cl)c2)C(=O)N2CCC[C@H]2C(=O)NC2(CCCC2)C(=O)N(C)[C@@H](C2CCCC2)C(=O)N(C)[C@H](C(=O)N2CCOCC2)CC(=O)N(C)[C@@H](CC(C)C)C(=O)N[C@@H]([C@@H](C)CC)C(=O)N(C)CC1=O [PP0021] ([NMeL]I[Sar][NBuGly][NMePhe(4-Me)][Sar][hPhe(3-Cl-4-CF3)]P[Ac5c][NMeGly(cPent)][NMeD]-Morpholide; lactam N-11) | C (A compound having a KD ratio of 0.1 or more and less than 3 is denoted as C) | C (A compound having a KD ratio of 0.1 or more and less than 3 is denoted as C)
2 | CC[C@H](C)[C@@H]1NC(=O)[C@H](CC(C)C)N(C)C(=O)C[C@@H](C(=O)N2CCOCC2)N(C)C(=O)[C@H](C2CCCC2)N(C)C(=O)C2(CCCC2)NC(=O)[C@@H]2CCCN2C(=O)[C@H](CCc2ccc(C(F)(F)F)c(Cl)c2)NC(=O)CN(C)C(=O)[C@H](Cc2ccc(C)cc2)N(CC)C(=O)CN(C)C(=O)CN(C)C1=O [PP0022] ([NMeL]I[Sar][Sar][NEtPhe(4-Me)][Sar][hPhe(3-Cl-4-CF3)]P[Ac5c][NMeGly(cPent)][NMeD]-Morpholide; lactam N-11) | B (a compound having 3 or more and less than 10 is denoted as B) | C (A compound having a KD ratio of 0.1 or more and less than 3 is denoted as C)
3 | CC[C@H](C)[C@@H]1NC(=O)[C@H](CC(C)C)N(C)C(=O)C[C@@H](C(=O)N2CCOCC2)N(C)C(=O)[C@H](C2CCCC2)N(C)C(=O)C2(CCCC2)NC(=O)[C@@H]2CCCN2C(=O)[C@H](CCc2ccc(C(F)(F)F)c(Cl)c2)NC(=O)CN(C)C(=O)[C@H](Cc2ccc(C(F)(F)F)cc2)N(CC)C(=O)CN(C)C(=O)CN(C)C1=O [PP0023] ([NMeL]I[Sar][Sar][NEtPhe(4-CF3)][Sar][hPhe(3-Cl-4-CF3)]P[Ac5c][NMeGly(cPent)][NMeD]-Morpholide; lactam N-11) | B (a compound having 3 or more and less than 10 is denoted as B) | C (A compound having a KD ratio of 0.1 or more and less than 3 is denoted as C)
4 | CC[C@H](C)[C@@H]1NC(=O)[C@H](CC(C)C)N(C)C(=O)C[C@@H](C(=O)N2CCOCC2)N(C)C(=O)[C@H](C2CCCC2)N(C)C(=O)C2(CCCC2)NC(=O)[C@@H]2CCCN2C(=O)[C@H](CCc2ccc(C(F)(F)F)c(Cl)c2)NC(=O)CN(C)C(=O)[C@H](C2CCCC2)N(CC)C(=O)CN(C)C(=O)CN(C)C1=O [PP0024] ([NMeL]I[Sar][Sar][X30][Sar][hPhe(3-Cl-4-CF3)]P[Ac5c][NMeGly(cPent)][NMeD]-Morpholide; lactam N-11) | B (a compound having 3 or more and less than 10 is denoted as B) | C (A compound having a KD ratio of 0.1 or more and less than 3 is denoted as C)
5 | CC[C@H](C)[C@@H]1NC(=O)[C@H](CC(C)C)N(C)C(=O)C[C@@H](C(=O)N2CCOCC2)N(C)C(=O)[C@H](C2CCCC2)N(C)C(=O)C2(CCCC2)NC(=O)[C@@H]2CCCN2C(=O)[C@H](CCc2ccc(C(F)(F)F)c(Cl)c2)NC(=O)CN(CC)C(=O)[C@H](Cc2ccc(C)cc2)N(C)C(=O)CN(C)C(=O)CN(C)C1=O [PP0025] ([NMeL]I[Sar][Sar][NMePhe(4-Me)][NEtG][hPhe(3-Cl-4-CF3)]P[Ac5c][NMeGly(cPent)][NMeD]-Morpholide; lactam N-11) | C (A compound having a KD ratio of 0.1 or more and less than 3 is denoted as C) | C (A compound having a KD ratio of 0.1 or more and less than 3 is denoted as C)
6 | CC[C@H](C)[C@@H]1NC(=O)[C@H](CC(C)C)N(C)C(=O)C[C@@H](C(=O)N2CCOCC2)N(C)C(=O)[C@H](C2CCCC2)N(C)C(=O)C2(CCCC2)NC(=O)[C@@H]2CCCN2C(=O)[C@H](CCc2ccc(C(F)(F)F)c(Cl)c2)NC(=O)CN(C)C(=O)[C@H](Cc2ccc(C)cc2)N(CC)C(=O)CN(CC)C(=O)CN(C)C1=O [PP0027] ([NMeL]I[Sar][NEtG][NEtPhe(4-Me)][Sar][hPhe(3-Cl-4-CF3)]P[Ac5c][NMeGly(cPent)][NMeD]-Morpholide; lactam N-11) | C (A compound having a KD ratio of 0.1 or more and less than 3 is denoted as C) | C (A compound having a KD ratio of 0.1 or more and less than 3 is denoted as C)
7 | CC[C@H](C)[C@@H]1NC(=O)[C@H](CC(C)C)N(C)C(=O)C[C@@H](C(=O)N2CCOCC2)N(C)C(=O)[C@H](C2CCCC2)N(C)C(=O)C2(CCCC2)NC(=O)[C@@H]2CCCN2C(=O)[C@H](CCc2ccc(C(F)(F)F)c(Cl)c2)NC(=O)CN(CC)C(=O)[C@H](Cc2ccc(C)cc2)N(CC)C(=O)CN(C)C(=O)CN(C)C1=O [PP0028] ([NMeL]I[Sar][Sar][NEtPhe(4-Me)][NEtG][hPhe(3-Cl-4-CF3)]P[Ac5c][NMeGly(cPent)][NMeD]-Morpholide; lactam N-11) | C (A compound having a KD ratio of 0.1 or more and less than 3 is denoted as C) | C (A compound having a KD ratio of 0.1 or more and less than 3 is denoted as C)
8 | CC[C@H](C)[C@@H]1NC(=O)[C@H](CC(C)C)N(C)C(=O)C[C@@H](C(=O)N2CCOCC2)N(C)C(=O)[C@H](C2CCCC2)N(C)C(=O)C2(CCCC2)NC(=O)[C@@H]2CCCN2C(=O)[C@H](CCc2ccc(C(F)(F)F)c(Cl)c2)NC(=O)CN(CC)C(=O)[C@H](Cc2ccc(C)cc2)N(C)C(=O)CN(CC)C(=O)CN(C)C1=O [PP0029] ([NMeL]I[Sar][NEtG][NMePhe(4-Me)][NEtG][hPhe(3-Cl-4-CF3)]P[Ac5c][NMeGly(cPent)][NMeD]-Morpholide; lactam N-11) | C (A compound having a KD ratio of 0.1 or more and less than 3 is denoted as C) | C (A compound having a KD ratio of 0.1 or more and less than 3 is denoted as C)
9 | CC[C@H](C)[C@@H]1NC(=O)[C@H](CC(C)C)N(C)C(=O)C[C@@H](C(=O)N2CCOCC2)N(C)C(=O)[C@H](C2CCCC2)N(C)C(=O)C2(CCCC2)NC(=O)[C@@H]2CCCN2C(=O)[C@H](CCc2ccc(C(F)(F)F)c(Cl)c2)NC(=O)CN(CC)C(=O)[C@H](Cc2ccc(C)cc2)N(CC)C(=O)CN(CC)C(=O)CN(C)C1=O [PP0030] ([NMeL]I[Sar][NEtG][NEtPhe(4-Me)][NEtG][hPhe(3-Cl-4-CF3)]P[Ac5c][NMeGly(cPent)][NMeD]-Morpholide; lactam N-11) | C (A compound having a KD ratio of 0.1 or more and less than 3 is denoted as C) | C (A compound having a KD ratio of 0.1 or more and less than 3 is denoted as C)
10 | CC[C@H](C)[C@@H]1NC(=O)[C@H](C)N(C)C(=O)C[C@@H](C(=O)N2CCOCC2)N(C)C(=O)[C@H](C2CCCC2)N(C)C(=O)C2(CCCC2)NC(=O)[C@@H]2CCCN2C(=O)[C@H](CCc2ccc(C(F)(F)F)c(Cl)c2)NC(=O)CN(C)C(=O)[C@H](Cc2ccc(C)cc2)N(CC)C(=O)CN(C)C(=O)CN(C)C1=O [PP0031] ([NMeA]I[Sar][Sar][NEtPhe(4-Me)][Sar][hPhe(3-Cl-4-CF3)]P[Ac5c][NMeGly(cPent)][NMeD]-Morpholide; lactam N-11) | B (a compound having 3 or more and less than 10 is denoted as B) | C (A compound having a KD ratio of 0.1 or more and less than 3 is denoted as C)
11 | CC[C@H](C)[C@@H]1NC(=O)[C@H](CC(F)(F)F)N(C)C(=O)C[C@@H](C(=O)N2CCOCC2)N(C)C(=O)[C@H](C2CCCC2)N(C)C(=O)C2(CCCC2)NC(=O)[C@@H]2CCCN2C(=O)[C@H](CCc2ccc(C(F)(F)F)c(Cl)c2)NC(=O)CN(C)C(=O)[C@H](Cc2ccc(C)cc2)N(CC)C(=O)CN(C)C(=O)CN(C)C1=O [PP0032] ([NMeAbu(4,4,4-F3)]I[Sar][Sar][NEtPhe(4-Me)][Sar][hPhe(3-Cl-4-CF3)]P[Ac5c][NMeGly(cPent)][NMeD]-Morpholide; lactam N-11) | C (A compound having a KD ratio of 0.1 or more and less than 3 is denoted as C) | C (A compound having a KD ratio of 0.1 or more and less than 3 is denoted as C)
12 | CC[C@H](C)[C@@H]1NC(=O)[C@H](CC(C)C)N(C)C(=O)C[C@@H](C(=O)N2CCOCC2)N(C)C(=O)[C@H](C2CCCC2)N(C)C(=O)C2(CCCC2)NC(=O)[C@@H]2CCCN2C(=O)[C@H](CCc2ccc(C(F)(F)F)c(Cl)c2)NC(=O)CN(C)C(=O)[C@H](Cc2ccc(C)cc2)N(C)C(=O)[C@H](CO)N(C)C(=O)CN(C)C1=O [PP0037] ([NMeL]I[Sar][NMeS][NMePhe(4-Me)][Sar][hPhe(3-Cl-4-CF3)]P[Ac5c][NMeGly(cPent)][NMeD]-Morpholide; lactam N-11) | C (A compound having a KD ratio of 0.1 or more and less than 3 is denoted as C) | C (A compound having a KD ratio of 0.1 or more and less than 3 is denoted as C)
13 | CC[C@H](C)[C@@H]1NC(=O)[C@H](CC(C)C)N(C)C(=O)C[C@@H](C(=O)N2CCOCC2)N(C)C(=O)[C@H](C2CCCC2)N(C)C(=O)C2(CCCC2)NC(=O)[C@@H]2CCCN2C(=O)[C@H](CCc2ccc(C(F)(F)F)c(Cl)c2)NC(=O)CN(C)C(=O)[C@H](Cc2ccccc2)N(C)C(=O)CN(C)C(=O)CN(C)C1=O [PP0039] ([NMeL]I[Sar][Sar][NMeF][Sar][hPhe(3-Cl-4-CF3)]P[Ac5c][NMeGly(cPent)][NMeD]-Morpholide; lactam N-11) | C (A compound having a KD ratio of 0.1 or more and less than 3 is denoted as C) | C (A compound having a KD ratio of 0.1 or more and less than 3 is denoted as C)
